Reference: the Deep4Chem optical property database
One block for each molecule: values may come before it.

Test: solvent given as SMILES

Structure (SMILES): O=[N+]([O-])c1ccco1
- absorption maximum (in CO): 302 nm
- absorption maximum (in O): 313 nm

Structure (SMILES): CC[N+]1(CC)CN2C(=N1)C(C(=O)[O-])=Cc1ccccc12
- absorption maximum (in CN(C)C=O): 378 nm
- absorption maximum (in O): 369 nm

Structure (SMILES): CC(C)=C(C)C
- absorption maximum (in CCCCCCC): 196 nm

Structure (SMILES): F[B-]1(F)OC(c2cccc(Br)c2)=Cc2ccc3ccccc3[n+]21
- absorption maximum (in ClC(Cl)Cl): 426 nm

Structure (SMILES): COC(=O)c1ccc(/N=N/c2cc3c4c(c2)CCCN4CCC3)cc1
- absorption maximum (in CCOC(C)=O): 474 nm

Structure (SMILES): C[Si]1(C)C2=CC(=[N+]3CCC3)C=C(F)C2=Nc2c(F)cc(N3CCC3)cc21
- absorption maximum (in CCO): 709 nm

Structure (SMILES): COC(=O)C(NC(=O)CCNc1cccc2ccccc12)C(C)C (stereo not drawn)
- absorption maximum (in CCO): 330 nm

Structure (SMILES): COc1cc(N(c2ccccc2)c2ccccc2)ccc1C=C(C#N)C#N
- absorption maximum (in C1COCCO1): 436 nm
- absorption maximum (in CC#N): 440 nm
- absorption maximum (in CC(C)=O): 440 nm
- absorption maximum (in CCOC(C)=O): 439 nm
- absorption maximum (in CN(C)C=O): 445 nm
- absorption maximum (in CO): 442 nm
- absorption maximum (in Cc1ccccc1): 443 nm
- absorption maximum (in ClC(Cl)Cl): 449 nm
- absorption maximum (in ClCCl): 446 nm

Structure (SMILES): CCn1c2ccccc2c2cc(-c3cc(-c4ccc5c(c4)c4ccccc4n5CC)nc(N4CCCCC4)n3)ccc21
- absorption maximum (in C1CCOC1): 367 nm
- absorption maximum (in CCOC(C)=O): 368 nm
- absorption maximum (in CN(C)C=O): 370 nm
- absorption maximum (in Cc1ccccc1): 369 nm
- absorption maximum (in ClCCl): 371 nm

Structure (SMILES): CCN(CC)c1ccc2cc(/C=C/C(O)=C/C(C)=O)c(=O)oc2c1
- absorption maximum (in CC#N): 456 nm
- absorption maximum (in CC(C)=O): 456 nm
- absorption maximum (in CCOC(C)=O): 447 nm
- absorption maximum (in CO): 458 nm
- absorption maximum (in CS(C)=O): 470 nm
- absorption maximum (in Cc1ccccc1): 447 nm
- absorption maximum (in ClC(Cl)Cl): 455 nm
- absorption maximum (in ClCCl): 456 nm

Structure (SMILES): CCN(CC)c1ccc(/C=N/CC/N=C/c2ccc(N(CC)CC)cc2O)c(O)c1
- absorption maximum (in CC#N): 339 nm
- absorption maximum (in CN(C)C=O): 353 nm
- absorption maximum (in ClCCl): 344 nm

Structure (SMILES): N#Cc1ccc2c(c1)CCc1nc(-c3ccc([N+](=O)[O-])cc3)c3c(c1-2)CCc1cc(C#N)ccc1-3
- absorption maximum (in C1CCOC1): 331 nm
- absorption maximum (in CC#N): 349 nm
- absorption maximum (in CCCCCC): 350 nm
- absorption maximum (in CCOC(C)=O): 329 nm
- absorption maximum (in CO): 333 nm
- absorption maximum (in CS(C)=O): 360 nm
- absorption maximum (in Cc1ccccc1): 343 nm
- absorption maximum (in ClCCl): 345 nm

Structure (SMILES): COc1ccc2c(c1)c1cc(OC)ccc1n2-c1ccc(S(=O)(=O)c2ccc(-n3c4ccc(OC)cc4c4cc(OC)ccc43)cc2)cc1
- absorption maximum (in Cc1ccccc1): 369.69 nm

Structure (SMILES): CCc1c(C)[nH]c(C2=[N+]3C(=Cc4c(C)c(CC)c(/C=C/c5ccc(N(C)C)cc5)n4[B-]3(F)F)c3ccccc32)c1C
- absorption maximum (in C1CCOC1): 720 nm
- absorption maximum (in CC#N): 713 nm
- absorption maximum (in CCCCCC): 719 nm
- absorption maximum (in CO): 712 nm
- absorption maximum (in Cc1ccccc1): 730 nm
- absorption maximum (in ClCCl): 725 nm

Structure (SMILES): O=S1(=O)c2ccccc2C2(c3cc(-c4ccc(N(c5ccccc5)c5ccccc5)cc4)ccc3-c3ccc(-c4ccc(N(c5ccccc5)c5ccccc5)cc4)cc32)c2ccccc21
- absorption maximum (in ClCCl): 380 nm

Structure (SMILES): CCCCCCCCCCCCn1nnc(-c2ccc(C#Cc3ccc(C#Cc4ccc(-c5nnn(CCCCCCCCCCCC)n5)cc4)c4nc5c6ccccc6c6ccccc6c5nc34)cc2)n1
- absorption maximum (in C1CCOC1): 428 nm
- absorption maximum (in Cc1ccccc1): 428 nm
- absorption maximum (in ClCCl): 428 nm

Next, values leading:

- absorption maximum (in ClC(Cl)Cl): 533 nm
Structure (SMILES): CCOC(CN1C(=O)C2=C(c3cccs3)N(CC(OCC)OCC)C(=O)C2=C1c1cccs1)OCC

- absorption maximum (in ClCCl): 431 nm
Structure (SMILES): c1ccc(C2=C(c3ccccc3)c3cccc4c5c(cc(c34)O2)=NC2CCCCC2N=5)cc1 (stereo not drawn)

- absorption maximum (in ClC(Cl)Cl): 608 nm
Structure (SMILES): CC1(C)c2ccccc2-c2ccc(N3c4ccc(-c5ccc(/C=C6\C(=O)c7ccc(C(=O)O)cc7C6=O)s5)cc4C4CCCC43)cc21 (stereo not drawn)

- absorption maximum (in ClCCl): 337 nm
Structure (SMILES): CCCCn1c2ccc3ccc4ccccc4c3c2c2c3c(ccc4ccccc43)ccc21

- absorption maximum (in CS(C)=O): 622 nm
Structure (SMILES): F[B-]1(F)C2=C(C=c3c4cccc5cccc(c54)n31)c1cccc3ccc[n+]2c13

- absorption maximum (in C1CCOC1): 360 nm
Structure (SMILES): C1=Cc2ccccc2C(=Cc2ccc(C=C3c4ccccc4-c4ccccc43)cc2)c2ccccc21

- absorption maximum (in ClC(Cl)Cl): 581 nm
Structure (SMILES): Cc1cc(C)c(C2=C3C=CC(c4csc5ccccc45)=[N+]3[B-](F)(F)n3c2ccc3-c2csc3ccccc23)c(C)c1

- absorption maximum (in ClCCl): 346 nm
Structure (SMILES): F[B-]1(F)Oc2ccc3ccccc3c2-c2c3c(c4c([n+]21)CCc1ccccc1-4)CCc1ccccc1-3

- absorption maximum (in ClCCl): 335 nm
Structure (SMILES): CC(C)(C)NC(=O)c1cccc2ccc3c4cc(Cl)ccc4c4ccc(Cl)cc4c3c12

- absorption maximum (in CO): 649 nm
- absorption maximum (in ClC(Cl)Cl): 669 nm
- absorption maximum (in ClCCl): 670 nm
Structure (SMILES): CCN1C(=CC2=C([O-])C(=Cc3sc4ccccc4[n+]3CC)C2=O)Sc2ccccc21

- absorption maximum (in ClC(Cl)Cl): 480 nm
Structure (SMILES): CC(C)c1cccc(C(C)C)c1-n1c(=O)c2cc3nc(-c4ccccc4)c4cc5c(=O)n(-c6c(C(C)C)cccc6C(C)C)c(=O)c6cc7c(-c8ccccc8)nc8cc(c1=O)c2c1c3c4c(c56)c7c81

- absorption maximum (in ClCCl): 360 nm
Structure (SMILES): CCn1c2c(-c3ccc(-c4cccs4)s3)cc(C(C)(C)C)cc2c2cc(C(C)(C)C)cc(-c3ccc(-c4cccs4)s3)c21

- absorption maximum (in ClC(Cl)Cl): 445 nm
Structure (SMILES): Cc1ccc(S(=O)(=O)/N=c2\oc3cccc4c5c(-c6ccccc6)oc6cccc(c(c2-c2ccccc2)c34)c65)cc1
